Results as given in patent US20250034183A1, “POLYMORPHIC FORMS AND METHODS OF PRODUCING POLYMORPHIC FORMS OF A COMPOUND” (Viking Therapeutics, Inc., priority 2022, published 2025).
“And” between values parts separate entries of the source, which are not always exact repeats. Equal entries are not always repeated. “Also recorded” adds a separate entry of the source. Structures can show the parent of a compound that is named as a salt.

How the values were obtained:
Assay type in all cases: physicochemical
[1] = Kinetic solubility in water at 37° C.
Protocol: (§1) In SGF, concentrations were below 1 μg/mL up until 6 hours. The resulting solid was form A. In water, a concentration of 0.3 mg/mL was achieved within 2 minutes and concentration after 6 hours was about 0.5 mg/mL.
(§2) In SGF, concentrations were below 1 μg/mL up until 6 hours. The resulting solid was non-crystalline by XRPD. In water, a concentration of 2.3 mg/mL was achieved within 2 minutes and concentration after 6 hours was about 3.1 mg/mL.

[2] = Kinetic solubility in simulated gastric fluid (SGF); conditions: for Concentrations in SGF up until 6 hours: SGF pH about 1.2, all time points up until 6 hours; for Resulting solid after kinetic solubility in SGF (XRPD): SGF pH about 1.2; for Concentration in SFG: SGF pH about 1.2, 37° C.
Protocol: as §1, §2

[3] = Equilibrium aqueous solubility in water at ambient temperature
Protocol: Equilibrium solubility of Compound 1 and 1-A was measured in water at ambient temperature. A known volume of water was placed in a 1-dram glass vial and weight aliquots of Compound 1 or Compound 1-A were added while magnetically stirring at room temperature. If the solid dissolved, another aliquot of […] was added.

[4] = Dynamic vapor sorption (DVS) hygroscopicity; conditions: for Hygroscopicity / water uptake (DVS): 25° C., 5 to 95% RH
Protocol: DVS analysis was carried out using a TA Instruments Q5000 Dynamic Vapor Sorption analyzer. The instrument was calibrated with standard weights and a sodium bromide standard for humidity. Approximately 10-25 mg of sample was loaded into a metalcoated quartz pan for analysis. The sample was analyzed at 25° C. with a maximum equilibration time of one hour in 10% relative humidity (RH) steps from 5 to 95% RH (adsorption cycle) and from 95 to 5% RH (desorption cycle). The movement from one step to the next occurred either after satisfying the equilibrium criterion of 0.01% weight change or, if the equilibrium criterion was not met, after one hour. The percent weight change values were calculated using Microsoft Excel®.

[5] = Competitive slurry (interconversion) experiments, solid form by XRPD; conditions: all competitive slurry conditions tested
Protocol: Solutions (˜2 mL) were saturated with Form A of Compound 1. Once saturated, they were centrifuged and the mother liquors were transferred to HPLC vials containing equal amounts (approximately 10 mg each) of Forms A, C, D, and E. The samples were then stirred magnetically at a specified temperature for 3 days. Solids were collected by vacuum filtration.

Row | SMILES | Concentrations in SGF up until 6 hours [2] | Concentration in water ([1]; 2 min) | Concentration in water ([1]; 5 min) | Concentration in water ([1]; 10 min) | Concentration in water ([1]; 30 min) | Concentration in water ([1]; 60 min) | Concentration in water ([1]; 120 min) | Concentration in water ([1]; 240 min) | Concentration at 4 hours [3] | Concentration at 24 hours [3] | Concentration at 48 hours [3] | Concentration in SFG ([2]; 2 min) | Concentration in SFG ([2]; 5 min) | Concentration in SFG ([2]; 10 min) | Concentration in SFG ([2]; 30 min) | Concentration in SFG ([2]; 60 min) | Concentration in SFG ([2]; 120 min) | Concentration in SFG ([2]; 240 min) | Concentration in SFG ([2]; 360 min) | Hygroscopicity / water uptake (DVS) [4] | also measured
1 | Cc1cc(OCP(=O)(O)O)cc(C)c1Cc1ccc(O)c(Cc2ccccc2)c1 [Crystalline Form 1] | below 1 μg/mL |  |  |  |  |  |  |  |  |  |  |  |  |  |  |  |  |  |  |  | Resulting solid after kinetic solubility in water [1]: crystalline Form 3; Concentration in water ([1]; 2 min, listed as Compound 1-A (Form 1)): 2.3 mg/mL; Concentration in water ([1]; 360 min (6 hours), listed as Compound 1-A (Form 1)): about 3.1 mg/mL; Resulting solid after kinetic solubility in SGF (XRPD) ([2]; listed as Compound 1-A (Form 1)): non-crystalline
2 | Cc1cc(OCP(=O)(O)O)cc(C)c1Cc1ccc(O)c(Cc2ccccc2)c1 [Compound 1-A, (2-dimethylamino)ethanol (“deanol”) salt of Compound 1] |  | 2.25 mg/mL | 2.66 mg/mL | 2.98 mg/mL | 3.07 mg/mL | 3.14 mg/mL | 2.28 mg/mL | 2.87 mg/mL | 1.45 mg/mL | 1.43 mg/mL | 1.42 mg/mL | 350 ng/mL | 170 ng/mL | 110 ng/mL | 80 ng/mL | 50 ng/mL | 280 ng/mL | 210 ng/mL | 70 ng/mL |  | Concentration in water ([1]; 360 min (6 hours)): 3.07 mg/mL
3 | Cc1cc(OCP(=O)(O)O)cc(C)c1Cc1ccc(O)c(Cc2ccccc2)c1 [Compound 1] | below 1 μg/mL | 0.3 mg/mL and 0.29 mg/mL | 0.33 mg/mL | 0.30 mg/mL | 0.29 mg/mL | 0.40 mg/mL | 0.41 mg/mL | 0.39 mg/mL | 0.30 mg/mL | 0.32 mg/mL | 0.32 mg/mL | 400 ng/mL | 180 ng/mL | 110 ng/mL | 100 ng/mL | 70 ng/mL | 370 ng/mL | 150 ng/mL | 100 ng/mL |  | Resulting solid after kinetic solubility in SGF (XRPD) [2]: form A
4 | Cc1cc(OCP(=O)(O)O)cc(C)c1Cc1ccc(O)c(Cc2ccccc2)c1 [Crystalline Form 3] |  |  |  |  |  |  |  |  |  |  |  |  |  |  |  |  |  |  |  | slight water uptake | 
5 | Cc1cc(OCP(=O)(O)O)cc(C)c1Cc1ccc(O)c(Cc2ccccc2)c1 [Crystalline Form A] |  |  |  |  |  |  |  |  |  |  |  |  |  |  |  |  |  |  |  | moderately hygroscopic; also recorded: moderate water uptake | Relative stability of crystal forms [5]: most stable form; Stability over humidity [4]: stable over a wide range of humidity
6 | Cc1cc(OCP(=O)(O)O)cc(C)c1Cc1ccc(O)c(Cc2ccccc2)c1 [Crystalline Form 2] |  |  |  |  |  |  |  |  |  |  |  |  |  |  |  |  |  |  |  |  | Hygroscopicity / water uptake (DVS) ([4]; listed as Crystal Form 2): moderately hygroscopic
